Data reported in ChEMBL document CHEMBL3856190, “Novel spirothiazamenthane inhibitors of the influenza A M2 proton channel” (Eur J Med Chem, 2016).
Calls of active or inactive are those of the source. The calls are words filed in the database; no cut-off is given here.

Legend:
[1] = Cytotoxicity against yeast cells assessed as growth inhibition after 44 hrs by turbidometric assay; assay type: toxicity, cell-based; conditions: Saccharomyces cerevisiae
[2] = Cytotoxicity against yeast cells assessed as growth inhibition at 100 uM after 44 hrs by turbidometric assay; assay type: toxicity, cell-based; conditions: saccharomyces cerevisiae
[3] = Inhibition of Influenza A virus A/udorn/72(H3N2) wild type M2 proton channel expressed in yeast assessed as growth restoration measured after 44 hrs by turbidometric assay; set-up: species or system Influenza A virus (A/udorn/1972(H3N2))
[4] = Cytotoxicity against MDCK cells assessed as reduction in cell viability at 100 uM; assay type: toxicity, cell-based, Canis lupus familiaris; conditions: dog
MDCK [5] = assay: Antiviral activity against Influenza A virus A/Puerto Rico/8/34 expressing wild type M2 proton channel infected MDCK cells assessed as inhibition of viral replication at 20 to 100 uM measured after 10 hrs by miniplaque assay; assay type: functional, cell-based; conditions: Influenza A virus (A/Puerto Rico/8/1934(H1N1))
MDCK [6] = assay: Antiviral activity against amantadine-sensitive Influenza A virus A/Hong Kong/1/68(H3N2) infected in MDCK cells assessed as protection from virus-induced cell death at 1 uM measured after 72 hrs by MTT assay; assay type: functional, cell-based; conditions: Influenza A virus (A/Hong Kong/1/1968(H3N2))
[7] = Antiviral activity against Influenza A virus A/Puerto Rico/8/34 expressing wild type M2 proton channel infected in MDCK cells assessed as inhibition of viral replication measured after 10 hrs by miniplaque assay; assay type: functional, cell-based, Influenza A virus (A/Puerto Rico/8/1934(H1N1))
[8] = Cytotoxicity against MDCK cells at 3 uM measured after 72 hrs by MTT assay; assay type: toxicity, cell-based, Canis lupus familiaris; conditions: dog

## COc1ccc(CNC2=NC(C)(C)[C@]3(CC[C@H](C)CC3)S2)cc1Cl
[1]
  IC50 at 44 h: > 30 µM

## CC1(C)N=C(NCc2ccccc2F)S[C@]12CC[C@@H](C)CC2
[1]
  IC50 at 44 h: 10 µM

## CN1CCC(CNC2=NC(C)(C)[C@]3(CC[C@H](C)CC3)S2)CC1
[2]
  Activity: Non-Toxic
[3]
  EC50: 10 µM

## CC1(C)N=C(NCc2ccccn2)S[C@]12CC[C@@H](C)CC2
[2]
  Activity: Non-Toxic
[3]
  EC50: 10 µM

## CC1(C)N=C(N2CCNCC2)S[C@]12CC[C@@H](C)CC2
[2]
  Activity: Non-Toxic
[3]
  EC50: > 100 µM

## COc1cc(F)ccc1CNC1=NC(C)(C)[C@]2(CC[C@H](C)CC2)S1
[1]
  IC50 at 44 h: > 30 µM

## CC1(C)N=C(NCc2ccco2)S[C@]12CC[C@@H](C)CC2
[1]
  IC50 at 44 h: > 30 µM

## CC1(C)N=C(NCc2cccnc2)S[C@]12CC[C@@H](C)CC2
[2]
  Activity: Non-Toxic
[3]
  EC50: 5 µM

## CC1(C)N=C(NCCN2CCCC2)S[C@]12CC[C@@H](C)CC2
[2]
  Activity: Non-Toxic
[3]
  EC50: 8 µM

## CC1(C)N=C(NCC2CCNCC2)S[C@]12CC[C@@H](C)CC2
[2]
  Activity: Non-Toxic
[3]
  EC50: > 100 µM

## COc1ccc(CNC2=NC(C)(C)[C@]3(CC[C@H](C)CC3)S2)cc1OC
[2]
  Activity: Non-Toxic

## CC1(C)N=C(N2CCOCC2)S[C@]12CC[C@@H](C)CC2
[2]
  Activity: Non-Toxic
[3]
  EC50: 0.7 µM

## CC(C)N1CCN(CCNC2=NC(C)(C)[C@]3(CC[C@H](C)CC3)S2)CC1
[2]
  Activity: Non-Toxic
[3]
  EC50: 30 µM

## CC1(C)N=C(NCCc2ccncc2)S[C@]12CC[C@@H](C)CC2
[2]
  Activity: Non-Toxic
[3]
  EC50: > 100 µM

## CC(C)(C)OC(=O)N1CCN(CCNC2=NC(C)(C)[C@]3(CC[C@H](C)CC3)S2)CC1
[1]
  IC50 at 44 h: > 30 µM

## CC1(C)N=C(NCc2ccc3c(c2)OCO3)S[C@]12CC[C@@H](C)CC2
[1]
  IC50 at 44 h: > 30 µM

## COc1ccc(C(=O)NC2=NC(C)(C)[C@]3(CC[C@H](C)CC3)S2)cc1
[1]
  IC50 at 44 h: 10 µM

## COCCNC1=NC(C)(C)[C@]2(CC[C@H](C)CC2)S1
[2]
  Activity: Non-Toxic

## CC1(C)N=C(NCc2ccc(O)c(F)c2)S[C@]12CC[C@@H](C)CC2
[3]
  EC50: 10 µM
[1]
  IC50 at 44 h: > 30 µM

## CC1(C)N=C(NCc2ccc(C#N)cc2)S[C@]12CC[C@@H](C)CC2
[1]
  IC50 at 44 h: 100 µM

## COc1ccc(CNC2=NC(C)(C)[C@]3(CC[C@H](C)CC3)S2)cc1F
[1]
  IC50 at 44 h: 100 µM

## CC1(C)N=C(NS(=O)(=O)c2ccccc2)S[C@]12CC[C@@H](C)CC2
[1]
  IC50 at 44 h: 30 µM

## CCCCN1CCN(CCNC2=NC(C)(C)[C@]3(CC[C@H](C)CC3)S2)CC1
[2]
  Activity: Non-Toxic
[3]
  EC50: 3 µM
[4]
  Activity: Toxic
MDCK [5]
  inhibition: Active

## CC1(C)N=C(N)S[C@]12CC[C@@H](C)CC2
[2]
  Activity: Non-Toxic
[3]
  EC50: 0.03 µM
MDCK [6]
  Activity: Active
[7]
  EC50: 0.02 µM
[8]
  Activity: Non-Toxic

## CC1(C)N=C(N2CCCCC2)S[C@]12CC[C@@H](C)CC2
[2]
  Activity: Non-Toxic
[3]
  EC50: 10 µM

## CC1(C)N=C(NCCn2cccc2)S[C@]12CC[C@@H](C)CC2
[1]
  IC50 at 44 h: 100 µM

## CC1(C)N=C(NCCN2CCN(S(=O)(=O)c3ccccc3)CC2)S[C@]12CC[C@@H](C)CC2
[2]
  Activity: Non-Toxic
[3]
  EC50: 18 µM

## CC1(C)N=C(NCCN2CCN(S(C)(=O)=O)CC2)S[C@]12CC[C@@H](C)CC2
[2]
  Activity: Non-Toxic

## CC1(C)N=C(NCCN2CCNCC2)S[C@]12CC[C@@H](C)CC2
[2]
  Activity: Non-Toxic
[3]
  EC50: 2.6 µM

## CC1(C)N=C(NCc2cccs2)S[C@]12CC[C@@H](C)CC2
[1]
  IC50 at 44 h: 30 µM

## CC1(C)N=C(NCc2ccncc2)S[C@]12CC[C@@H](C)CC2
[2]
  Activity: Non-Toxic
[3]
  EC50: 2 µM

## CN(C)CCN1CCN(CCNC2=NC(C)(C)[C@]3(CC[C@H](C)CC3)S2)CC1
[2]
  Activity: Non-Toxic
[3]
  EC50: 70 µM
MDCK [5]
  inhibition: Active

## CC1(C)N=C(NCCN2CCOCC2)S[C@]12CC[C@@H](C)CC2
[2]
  Activity: Non-Toxic
[3]
  EC50: > 100 µM

## CC(=O)N1CCN(CCNC2=NC(C)(C)[C@]3(CC[C@H](C)CC3)S2)CC1
[2]
  Activity: Non-Toxic
[3]
  EC50: 26 µM

## CC1(C)N=C(NCCc2ccccn2)S[C@]12CC[C@@H](C)CC2
[2]
  Activity: Non-Toxic
[3]
  EC50: 3 µM

## CN1CCN(CCNC2=NC(C)(C)[C@]3(CC[C@H](C)CC3)S2)CC1
[2]
  Activity: Non-Toxic
[3]
  EC50: 3 µM
MDCK [5]
  inhibition: Active

## CN1CCN(C2=NC(C)(C)[C@]3(CC[C@H](C)CC3)S2)CC1
[2]
  Activity: Non-Toxic
[3]
  EC50: > 100 µM

## COc1ccccc1CNC1=NC(C)(C)[C@]2(CC[C@H](C)CC2)S1
[1]
  IC50 at 44 h: 10 µM

## CC1(C)N=C(NCc2cc(-c3ccccc3)on2)S[C@]12CC[C@@H](C)CC2
[1]
  IC50 at 44 h: 10 µM

## CCCCOc1ccc(CN2CCN(CCNC3=NC(C)(C)[C@]4(CC[C@H](C)CC4)S3)CC2)cc1
[1]
  IC50 at 44 h: 3 µM

## CC1(C)N=C(NCc2ccc3cc[nH]c3c2)S[C@]12CC[C@@H](C)CC2
[1]
  IC50 at 44 h: > 30 µM

## CC1(C)N=C(NCCN2CCN(CCO)CC2)S[C@]12CC[C@@H](C)CC2
[2]
  Activity: Non-Toxic
[3]
  EC50: 50 µM

## CC1(C)N=C(NCc2ccccc2O)S[C@]12CC[C@@H](C)CC2
[3]
  EC50: 10 µM
[1]
  IC50 at 44 h: 100 µM

## CC(C)CCN1CCN(CCNC2=NC(C)(C)[C@]3(CC[C@H](C)CC3)S2)CC1
[2]
  Activity: Non-Toxic
[3]
  EC50: 10 µM
[4]
  Activity: Toxic
MDCK [5]
  inhibition: Active

## CCN1CCN(CCNC2=NC(C)(C)[C@]3(CC[C@H](C)CC3)S2)CC1
[3]
  EC50: > 30 µM
[1]
  IC50 at 44 h: 100 µM

## CC1(C)N=C(NCc2ccccc2)S[C@]12CC[C@@H](C)CC2
[1]
  IC50 at 44 h: 10 µM

## CC1(C)N=C(NCCNCc2ccccc2)S[C@]12CC[C@@H](C)CC2
[1]
  IC50 at 44 h: 100 µM

## CC1(C)N=C(NCCn2ccnc2)S[C@]12CC[C@@H](C)CC2
[2]
  Activity: Non-Toxic
[3]
  EC50: > 100 µM

## COc1cccc(CNC2=NC(C)(C)[C@]3(CC[C@H](C)CC3)S2)c1
[1]
  IC50 at 44 h: 30 µM

## COc1ccc(CNC2=NC(C)(C)[C@]3(CC[C@H](C)CC3)S2)c(OC)c1
[3]
  EC50: > 30 µM
[1]
  IC50 at 44 h: 100 µM

## CC1(C)N=C(NCCN2CCN(Cc3ccccc3)CC2)S[C@]12CC[C@@H](C)CC2
[3]
  EC50: 0.6 µM
[4]
  Activity: Toxic
[1]
  IC50 at 44 h: > 30 µM
MDCK [5]
  inhibition: Active

## CC1(C)N=C(NCc2ccc(F)cc2)S[C@]12CC[C@@H](C)CC2
[1]
  IC50 at 44 h: 30 µM

## CC1(C)N=C(NCc2cccc(F)c2)S[C@]12CC[C@@H](C)CC2
[1]
  IC50 at 44 h: 10 µM

## CC1(C)N=C(NCCNc2ccccc2)S[C@]12CC[C@@H](C)CC2
[1]
  IC50 at 44 h: 10 µM

## CC1(C)N=C(NCCN2CCN(CC3CCCCC3)CC2)S[C@]12CC[C@@H](C)CC2
[2]
  Activity: Non-Toxic
[3]
  EC50: 20 µM

## CN(C)CCNC1=NC(C)(C)[C@]2(CC[C@H](C)CC2)S1
[2]
  Activity: Non-Toxic
[3]
  EC50: 100 µM

## CCOCCN1CCN(CCNC2=NC(C)(C)[C@]3(CC[C@H](C)CC3)S2)CC1
[2]
  Activity: Non-Toxic
[3]
  EC50: 2.1 µM
MDCK [5]
  inhibition: Active

## CC1(C)N=C(NCc2cccc(O)c2)S[C@]12CC[C@@H](C)CC2
[2]
  Activity: Non-Toxic
[3]
  EC50: > 40 µM

## CC1(C)N=C(NCCN2CCCCC2)S[C@]12CC[C@@H](C)CC2
[2]
  Activity: Non-Toxic
[3]
  EC50: > 100 µM

## COc1ccc(CNC2=NC(C)(C)[C@]3(CC[C@H](C)CC3)S2)cc1
[1]
  IC50 at 44 h: 30 µM

## CC1(C)N=C(NC(=O)c2ccccc2)S[C@]12CC[C@@H](C)CC2
[1]
  IC50 at 44 h: 10 µM

## COc1ccc(C(=O)NC2=NC(C)(C)[C@]3(CC[C@H](C)CC3)S2)c(OC)c1
[1]
  IC50 at 44 h: 3 µM

## Cc1cccnc1NCCNC1=NC(C)(C)[C@]2(CC[C@H](C)CC2)S1
[1]
  IC50 at 44 h: 100 µM

## CC1(C)N=C(NCCc2cccnc2)S[C@]12CC[C@@H](C)CC2
[2]
  Activity: Non-Toxic
[3]
  EC50: 0.9 µM

## Cc1cnc(CN2CCN(CCNC3=NC(C)(C)[C@]4(CC[C@H](C)CC4)S3)CC2)cn1
[3]
  EC50: 20 µM
[1]
  IC50 at 44 h: 100 µM

## CCCCCCCCN1CCN(CCNC2=NC(C)(C)[C@]3(CC[C@H](C)CC3)S2)CC1
[2]
  Activity: Non-Toxic
[3]
  EC50: 10 µM
MDCK [5]
  inhibition: Active
